Reference: US12037300B2, “Use of a cation source to prevent decomposition of (thio)phosphoric acid triamide urease inhibitors when a phosphorus-containing fertilizer is present” (BASF SE, priority 2016, dated 2024)
Blank lines part the entries; values can stand above or below the molecule they belong to.

What was measured:
[1] = tested on: urease, naturally present in the soil; experiment: Dräger test: ammonia emission from soil treated with fertilizer granules; type: biochemical; details: for prevention of the degradation of U1: 0.25 g salt, 18 days storage; for prevention of the degradation of U1 / influence of DAP on the performance of the tested urease inhibitors in urea/DAP blends on addition of the salt: 10 g DAP; for influence of DAP on the performance of the tested urease inhibitors in urea/DAP blends on addition of the salt: 0.5 g salt, 3 weeks storage
Text: Alternatively, the amount of the (thio)phosphoric acid triamide (2) in a sample after a certain time period may be determined indirectly by determining the urease inhibiting efficacy that is observable. The urease-inhibiting efficacy may be determined by the Dräger test as outlined in the Examples. The Dräger test is based on the determination of the concentration of ammonia gas that is set free from a soil sample being treated with a urea-containing fertilizer once a day. In general, a certain amount of ammonia is typically produced within a certain time period in a soil sample being treated with a urea-containing fertilizer due to the degradation of the urea-containing fertilizer caused by the urease, which is present in the soil. If the urea-containing fertilizer is provided in combination with a urease inhibitor such as a (thio)phosphoric acid triamide (2), the degradation of the urea-containing fertilizer is slowed down, so that a lower amount of ammonia will be produced in the same time period. On the other hand, if the (thio)phosphoric acid triamide (2) has decomposed to a certain extent, e.g. upon storage, the production of ammonia will be reduced only to a lower extent. The ammonia concentration measured after a certain time period may thus be correlated with the amount of the (thio)phosphoric acid triamide (2) in a sample. In order to exclude a destabilizing effect caused by the urea-containing fertilizer (3a), the (thio)phosphoric acid triamide (2) may be provided in combination with a stabilizing agent, which prevents decomposition caused by the fertilizer (3a). By comparing the decomposition of the (thio)phosphoric acid triamide (2) in the presence of the fertilizer (3a) only, with the decomposition of the (thio)phosphoric acid triamide (2) in the presence of the fertilizer mixture (3) comprising the fertilizer (3a) and the P-containing fertilizer (3b), the decomposition caused by the P-containing fertilizer (3b) can be determined.
For the Dräger test, 150 g Limburgerhof (Germany) soil is added to a 500 mL wide-mouth jar (9 cm diameter). Fertilizer granules are added and distributed evenly over the soil. The amount of fertilizer added corresponds to 115 mg of urea-N. The soil and fertilizer are then wetted with a fine spray of water (1 mL). Afterwards, the jar is closed with a lid. In the middle of the lid a hole is made in which an ammonia gas test tube (Dräger, Ammoniak 20/a-D 8101301, Diffusionsröhrchen) is placed. The urease, naturally present in the soil, hydrolyses urea into carbon dioxide and ammonia. The concentration of ammonia gas is read out once a day from the scale on the Dräger diffusion tube. All tests are performed in duplicate.
For the preparation of dry blend fertilizer mixtures, 10 g of urea treated with a urease inhibitor and 10 g of the other fertilizer are added to a small jar. After closing the jar, the fertilizers are mixed by vigorously shaking the jar. The closed jar is then stored at room temperature in a dark place. At the end of the storage time, urea granules are removed and tested using the Dräger test.

[2] = type: physicochemical; details: for decomposition of the urease inhibitors: after one day in the absence of TSP granules
Text: The amount of the (thio)phosphoric acid triamide in a sample after a certain time period may be detected e.g. by HPLC using method DIN EN 16651. In order to exclude a destabilizing effect caused by the urea-containing fertilizer (3a), the (thio)phosphoric acid triamide (2) may be provided in combination with a stabilizing agent, which prevents decomposition caused by the fertilizer (3a). By comparing the decomposition of the (thio)phosphoric acid triamide (2) in the presence of the fertilizer (3a) only, with the decomposition of the (thio)phosphoric acid triamide (2) in the presence of the fertilizer mixture (3) comprising the fertilizer (3a) and the P-containing fertilizer (3b), the decomposition caused by the P-containing fertilizer (3b) can be determined.
Active ingredient content on urea was analyzed by HPLC (high-pressure liquid chromatography) using method DIN EN 16651. In case of bulk blends, the urea granules were separated from the other fertilizers before dissolving in water for HPLC analysis.
Urea granules treated with 0.04 wt.-% U1 active ingredient were mixed with TSP (Triple Super Phosphate) fertilizer granules. After mixing, the samples were stored in closed containers at room temperature. After 1 day of storage, the urea granules were separated from the TSP granules and the active ingredient (a.i.) concentration on the urea was analyzed by HPLC.

Molecule: O.O.O.O.O.O.O.O=S(=O)([O-])[O-].[Mg+2] [Magnesium sulfate heptahydrate]
prevention of the degradation of U1 [1]: does prevent the degradation of U1 as effectively as anhydrous magnesium sulfate

Molecule: CCCCNP(N)(N)=S [NBPT, N-n-butylthiophosphoric acid triamide]
decomposition of the urease inhibitors [2]: no decomposition

Molecule: CCCNP(N)(N)=S [NPPT, N-n-propylthiophosphoric acid triamide]
decomposition of the urease inhibitors [2]: no decomposition

influence of DAP on the performance of the tested urease inhibitors in urea/DAP blends on addition of the salt [1]: eliminates the influence of DAP
Molecule: [Ca+2].[Cl-].[Cl-] [calcium chloride, Calcium chloride anhydrous]
prevention of the degradation of U1 [1]: effective in preventing the degradation of U1
prevention of the degradation of U1 active ingredient on wetblend fertilizers ([1]; 16-8-22 fertilizer treated with CaCl2 solution, 1 month storage): able to prevent the degradation of U1 active ingredient

Molecule: O.O.O=S(=O)([O-])[O-].[Ca+2] [calcium sulfate, Calcium sulfate dihydrate]
prevention of the degradation of U1 [1]: effective in preventing the degradation of U1

Molecule: O=S(=O)([O-])[O-].[Mg+2] [magnesium sulfate, Magnesium sulfate anhydrous]
prevention of the degradation of U1 in fertilizer mixtures containing DAP ([1]; 0.25 g MgSO4, 10 g DAP, 1 month storage): does prevent the degradation of U1
influence of DAP on the performance of the tested urease inhibitors in urea/DAP blends on addition of the salt [1]: eliminates the influence of DAP
time for which degradation of U1 in mixtures containing DAP is prevented ([1]; 1.25 wt.-% magnesium sulfate): up to 5 months
time for which degradation of U1 in mixtures containing phosphate fertilizers is prevented ([1]; 2.5 wt.-% magnesium sulfate): up to 6 months
inhibition of the urease activity by the salt itself ([1]; 10 g urea, 0.25 g MgSO4, 1 month storage): does not inhibit the urease activity
inhibition of the urease enzyme by the salt on its own ([1]; Example 5, 18 days storage): does not inhibit the urease enzyme
amount effective to avoid U1 degradation ([1]; after 5 days storage of the NP mixture (urea/DAP)): ≤ 0.25 wt.-%

Remaining a.i. (%) ([2]; 24 h): 100%
Molecule: Urea
